Data: ChEMBL document CHEMBL6071211, “Invention of VH-937, a Potent HIV-1 Maturation Inhibitor with the Potential for Infrequent Oral Dosing in Humans” (ACS Med Chem Lett, 2024)

Experiments:
[1] = tested on: Human immunodeficiency virus 1; assay: In vitro antiviral activity against fully replicating wild type pseudotype HIV1 NLRepRluc-P373S by single cycle assay; type: functional, organism-based
[2] = Elimination half life in dog at 5 mg/kg, po; type: ADME, organism-based, Canis lupus familiaris; conditions: in vivo, read-out: beta t1/2 (converted)
[3] = Half life in normal healthy human volunteers plasma at 10 mg for 15 days and followed by 30 mg; type: ADME, cell-free; conditions: time 15 day
[4] = Oral bioavailability in dog at 5 mg/kg; type: ADME, organism-based, Canis lupus familiaris; conditions: in vivo
[5] = target: Human immunodeficiency virus type 1 Gag protein (Human immunodeficiency virus 1) (UniProt Q77YG1); assay: Binding affinity to HIV1 wild type Gag mutant assessed as dissociation half life by virus-like particle (VLP) assay
[6] = tested on: Human immunodeficiency virus 1; assay: In vitro antiviral activity against fully replicating wild type pseudotype HIV1 NLRepRluc-P373S assessed as maximum percent inhibition by single cycle assay relative to control; type: functional
[7] = Elimination half life in rat at 5 mg/kg, po; type: ADME, organism-based; conditions: in vivo, read-out: beta t1/2 (converted)
[8] = tested on: Human immunodeficiency virus 1; assay: In vitro antiviral activity against HIV1 subtype B clinical isolate 92T593; type: functional, organism-based; conditions: Human immunodeficiency virus 1, 92T593
[9] = tested on: Human immunodeficiency virus 1; assay: In vitro antiviral activity against HIV1 subtype D clinical isolate UG270; type: functional, organism-based; conditions: Human immunodeficiency virus 1, UG270
[10] = Oral bioavailability in mouse at 5 mg/kg; type: ADME, organism-based; conditions: in vivo
[11] = tested on: Human immunodeficiency virus 1; assay: Ratio of EC50 for antiviral activity against fully replicating HIV1 harboring Gag deltaV370 mutant by multicycle assay to EC50 for antiviral activity against fully replicating wild type HIV1 NLRepRluc-P373S by multicycle assay; type: functional
[12] = tested on: Human immunodeficiency virus 1; assay: In vitro antiviral activity against fully replicating wild type HIV1 harboring NLRepRluc-P373S by multicycle assay; type: functional, organism-based
[13] = Oral bioavailability in Cynomolgus monkey at 5 mg/kg; type: ADME, organism-based, Macaca fascicularis; conditions: in vivo
[14] = tested on: Human immunodeficiency virus 1; assay: In vitro antiviral activity against fully replicating HIV1 harboring Gag deltaV370 mutant assessed as maximum percent inhibition by multicycle assay relative to control; type: functional
[15] = Volume of distribution at steady state in rat at 1 mg/kg, iv; type: ADME, organism-based; conditions: in vivo, read-out: Vdss
[16] = tested on: Human immunodeficiency virus 1; assay: Ratio of EC50 for antiviral activity against fully replicating pseudotype HIV1 harboring Gag V370A mutant by single cycle assay to EC50 for antiviral activity against fully replicating wild type pseudotype HIV1 NLRepRluc-P373S by single cycle assay; type: functional
[17] = tested on: Human immunodeficiency virus 1; assay: Ratio of EC50 for antiviral activity against fully replicating HIV1 harboring Gag A364V mutant by multicycle assay to EC50 for antiviral activity against fully replicating wild type HIV1 NLRepRluc-P373S by multicycle assay; type: functional
[18] = tested on: Human immunodeficiency virus 1; assay: Ratio of EC50 for antiviral activity against fully replicating HIV1 harboring Gag V370A mutant by multicycle assay to EC50 for antiviral activity against fully replicating wild type HIV1 NLRepRluc-P373S by multicycle assay; type: functional
[19] = tested on: Human immunodeficiency virus 1; assay: Ratio of EC50 for antiviral activity against fully replicating pseudotype HIV1 harboring Gag A364V mutant by single cycle assay to EC50 for antiviral activity against fully replicating wild type pseudotype HIV1 NLRepRluc-P373S by single cycle assay; type: functional
[20] = tested on: Human immunodeficiency virus 1; assay: In vitro antiviral activity against fully replicating HIV1 harboring Gag V370A mutant assessed as maximum percent inhibition by multicycle assay relative to control; type: functional
[21] = AUC (infinity) in mouse at 1 mg/kg, iv; type: ADME, organism-based; conditions: in vivo
[22] = Metabolic stability in Cynomolgus monkey liver microsomes assessed as half life; type: ADME, Macaca fascicularis, Microsome
[23] = Oral bioavailability in rat at 5 mg/kg; type: ADME, organism-based; conditions: in vivo
[24] = Elimination half life in Cynomolgus monkey at 2 mg/kg, iv; type: ADME, organism-based, Macaca fascicularis; conditions: in vivo, read-out: beta t1/2 (converted)
Cytochrome P450 3A4 = Cytochrome P450 3A4 (Homo sapiens, UniProt P08684); assay: Inhibition of CYP3A4 (unknown origin); type: ADME
[25] = tested on: Human immunodeficiency virus 1; assay: In vitro antiviral activity against fully replicating HIV1 harboring Gag T332S/[…]/prR41G mutant by multicycle assay; type: functional, organism-based
[26] = tested on: Human immunodeficiency virus 1; assay: In vitro antiviral activity against fully replicating HIV1 harboring Gag T332S/[…]/prR41G mutant assessed as maximum percent inhibition by multicycle assay relative to control; type: functional
[27] = AUC (infinity) in dog at 2 mg/kg, iv; type: ADME, organism-based, Canis lupus familiaris; conditions: in vivo
[28] = Elimination half life in mouse at 5 mg/kg, po; type: ADME, organism-based; conditions: in vivo, read-out: beta t1/2 (converted)
[29] = tested on: Human immunodeficiency virus 1; assay: In vitro antiviral activity against HIV1 subtype A clinical isolate I-2496; type: functional, organism-based; conditions: Human immunodeficiency virus 1, I-2496
[30] = Clearance in mouse at 1 mg/kg, iv; type: ADME, organism-based; conditions: in vivo
[31] = Metabolic stability in mouse liver microsomes assessed as half life; type: ADME, Microsome
[32] = tested on: Human immunodeficiency virus 1; assay: In vitro antiviral activity against fully replicating wild type HIV1 NL4-3 in presence of human serum; type: functional, organism-based; conditions: Human immunodeficiency virus 1, NL4-3
[33] = Toxicity in normal healthy human volunteers assessed as adverse effect at 10 mg for 15 days and followed by 30 mg; conditions: in vivo, 360 h, time 15 day
[34] = tested on: Human immunodeficiency virus 1; assay: In vitro antiviral activity against fully replicating HIV1 harboring Gag V370A mutant by multicycle assay; type: functional, organism-based
[35] = Metabolic stability in dog liver microsomes assessed as half life; type: ADME, Canis lupus familiaris, Microsome
[36] = tested on: Human immunodeficiency virus 1; assay: In vitro antiviral activity against fully replicating HIV1 harboring Gag A364V mutant assessed as maximum percent inhibition by multicycle assay relative to control; type: functional
[37] = AUC (infinity) in Cynomolgus monkey at 2 mg/kg, iv; type: ADME, organism-based, Macaca fascicularis; conditions: in vivo
[38] = tested on: Human immunodeficiency virus 1; assay: Ratio of EC50 for antiviral activity against fully replicating pseudotype HIV1 harboring Gag V3621/V370A mutant by single cycle assay to EC50 for antiviral activity against fully replicating wild type pseudotype HIV1 NLRepRluc-P373S by single cycle assay; type: functional
[39] = tested on: Human immunodeficiency virus 1; assay: Binding affinity to HIV1 Gag A364V mutant assessed as dissociation half life by virus-like particle (VLP) assay
[40] = tested on: Human immunodeficiency virus 1; assay: In vitro antiviral activity against fully replicating pseudotype HIV1 harboring Gag V3621/V370A mutant by single cycle assay; type: functional, organism-based
[41] = tested on: Human immunodeficiency virus 1; assay: In vitro antiviral activity against fully replicating HIV1 NL4-3 harboring Gag A364V mutant; type: functional, organism-based; conditions: Human immunodeficiency virus 1, NL4-3
[42] = Elimination half life in dog at 2 mg/kg, iv; type: ADME, organism-based, Canis lupus familiaris; conditions: in vivo, read-out: beta t1/2 (converted)
[43] = tested on: Human immunodeficiency virus 1; assay: In vitro antiviral activity against fully replicating pseudotype HIV1 harboring Gag deltaV370 mutant by single cycle assay; type: functional, organism-based
Cytochrome P450 2D6 = Cytochrome P450 2D6 (Homo sapiens, UniProt P10635); assay: Inhibition of CYP2D6 (unknown origin); type: ADME
[44] = AUC (infinity) in Cynomolgus monkey at 5 mg/kg, po; type: ADME, organism-based, Macaca fascicularis; conditions: in vivo
[45] = tested on: Human immunodeficiency virus 1; assay: Ratio of EC50 for antiviral activity against fully replicating HIV1 harboring to Gag T332S/[…]/prR41G mutant by multicycle assay to EC50 for antiviral activity against fully replicating wild type HIV1 NLRepRluc-P373S by multicycle assay; type: functional
[46] = tested on: Human immunodeficiency virus 1; assay: In vitro antiviral activity against fully replicating HIV1 harboring Gag deltaV370 mutant by multicycle assay; type: functional, organism-based
[47] = tested on: Human immunodeficiency virus 1; assay: In vitro antiviral activity against HIV1 subtype F clinical isolate BZ126; type: functional, organism-based; conditions: Human immunodeficiency virus 1, BZ126
[48] = Volume of distribution at steady state in mouse at 1 mg/kg, iv; type: ADME, organism-based; conditions: in vivo, read-out: Vdss

Chain of Cytochrome P450 3A4 (P08684 whole entry): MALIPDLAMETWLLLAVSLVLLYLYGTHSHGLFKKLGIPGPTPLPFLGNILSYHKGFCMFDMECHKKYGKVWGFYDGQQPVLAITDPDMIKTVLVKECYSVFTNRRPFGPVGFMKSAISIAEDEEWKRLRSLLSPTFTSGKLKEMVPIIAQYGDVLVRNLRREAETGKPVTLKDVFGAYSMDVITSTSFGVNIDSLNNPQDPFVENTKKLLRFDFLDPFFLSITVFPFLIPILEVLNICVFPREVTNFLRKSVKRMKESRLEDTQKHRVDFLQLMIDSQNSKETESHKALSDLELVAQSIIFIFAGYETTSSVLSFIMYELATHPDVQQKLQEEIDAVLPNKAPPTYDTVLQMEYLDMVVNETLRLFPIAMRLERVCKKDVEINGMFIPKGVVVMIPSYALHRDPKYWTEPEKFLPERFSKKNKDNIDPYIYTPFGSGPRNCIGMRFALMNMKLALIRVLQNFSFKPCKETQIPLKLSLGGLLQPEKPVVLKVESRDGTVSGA
Chain of Cytochrome P450 2D6 (P10635 whole entry): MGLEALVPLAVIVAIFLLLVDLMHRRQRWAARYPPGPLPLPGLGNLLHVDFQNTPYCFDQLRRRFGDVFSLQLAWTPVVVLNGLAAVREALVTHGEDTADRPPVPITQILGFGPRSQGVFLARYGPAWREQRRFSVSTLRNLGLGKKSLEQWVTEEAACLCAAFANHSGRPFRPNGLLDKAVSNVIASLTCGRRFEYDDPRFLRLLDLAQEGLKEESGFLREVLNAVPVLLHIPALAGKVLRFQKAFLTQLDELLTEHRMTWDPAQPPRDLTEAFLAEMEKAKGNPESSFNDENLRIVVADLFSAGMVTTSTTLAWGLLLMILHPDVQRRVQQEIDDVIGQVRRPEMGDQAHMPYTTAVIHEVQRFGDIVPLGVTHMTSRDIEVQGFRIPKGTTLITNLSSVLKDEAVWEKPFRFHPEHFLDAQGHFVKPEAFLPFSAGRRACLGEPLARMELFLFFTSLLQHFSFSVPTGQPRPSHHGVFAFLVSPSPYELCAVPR

For C=C(C)[C@@H]1CC[C@]2(NCCN3CCS(=O)(=O)CC3)CC[C@]3(C)[C@H](CC[C@@H]4[C@@]5(C)CC=C(C6=CC[C@](COc7ncccc7C#N)(C(=O)O)CC6)C(C)(C)[C@@H]5CC[C@]43C)[C@@H]12, which EC50 [1] is on record?
Its EC50 is 5 nM.

What about the half-life [2] of the same compound?
The half-life was 26.9 h.

And the half-life [3]?
Its half-life is 67 h.

And the bioavailability [4]?
Its bioavailability is 59%.

And the T1/2 [5]?
Its T1/2 is 68.8 h.

And the Imax [6]?
The Imax was 99%.

And the half-life [7]?
Its half-life is 8.6 h.

And the EC50 [8]?
Its EC50 is 1 nM.

And the EC50 [9]?
Its EC50 is 2 nM.

And the bioavailability [10]?
The bioavailability was 46%.

And the “Ratio EC50” value [11]?
Its value is 2.

And the EC50 [12]?
Its EC50 is 2 nM.

What about the bioavailability [13] of the same compound?
The bioavailability was 43.5%.

What about the Imax [14] of the same compound?
Its Imax is 97.6%.

What about the Vd [15] of the same compound?
The Vd was 0.87 L/kg.

And the “Ratio EC50” value [16]?
Its value is 1.2.

What about the “Ratio EC50” value [17] of the same compound?
Its value is 2.5.

And the “Ratio EC50” value [18]?
The value was 2.

And the “Ratio EC50” value [19]?
Its value is 6.4.

What about the Imax [20] of the same compound?
Its Imax is 98.5%.

What about the AUC(0-inf) [21] of the same compound?
The AUC(0-inf) was 32.2 µM·h.

What about the half-life [22] of the same compound?
Its half-life is 0.2 h.

And the bioavailability [23]?
Its bioavailability is 45.1%.

And the half-life [24]?
Its half-life is 12.3 h.

What about the IC50 (Cytochrome P450 3A4) of the same compound?
The IC50 was greater than 4400 nM.

And the EC50 [25]?
Its EC50 is 8 nM.

And the Imax [26]?
The Imax was 98%.

And the AUC(0-inf) [27]?
Its AUC(0-inf) is 99.8 µM·h.

What about the half-life [28] of the same compound?
Its half-life is 14.5 h.

What about the EC50 [29] of the same compound?
The EC50 was 3 nM.

What about the clearance [30] of the same compound?
The clearance was 0.0378 L/h/kg.

What about the half-life [31] of the same compound?
The half-life was greater than 2 h.

What about the EC50 [32] of the same compound?
Its EC50 is 26 nM.

And the Activity [33]?
The Activity was “Non-Toxic”.

And the EC50 [34]?
Its EC50 is 4 nM.

What about the half-life [35] of the same compound?
The half-life was greater than 2 h.

And the Imax [36]?
The Imax was 95.2%.

And the AUC(0-inf) [37]?
The AUC(0-inf) was 65.5 µM·h.

And the “Ratio EC50” value [38]?
The value was 2.3.

And the T1/2 [39]?
Its T1/2 is 0.483 h.

What about the EC50 [40] of the same compound?
Its EC50 is 11 nM.

And the EC50 [41]?
Its EC50 is 5 nM.

And the half-life [42]?
The half-life was 26.9 h.

And the EC50 [43]?
The EC50 was 12 nM.

And the IC50 (Cytochrome P450 2D6)?
The IC50 was greater than 4400 nM.

What about the AUC(0-inf) [44] of the same compound?
Its AUC(0-inf) is 56.3 µM·h.

And the “Ratio EC50” value [45]?
Its value is 4.

And the EC50 [46]?
The EC50 was 4 nM.

And the EC50 [47]?
The EC50 was 2 nM.

What about the Vd [48] of the same compound?
The Vd was 0.53 L/kg.
